Data on 4 molecules can be found in US7928098B2, “Therapeutic and/or preventive agents for a sleep disorder” (Kyowa Hakko Kirin Co., Ltd., priority 2005, dated 2011).

Data set [1] deals with ddY male mice. The experiment in a line: Effect on pentobarbital sodium-induced sleeping time (loss of righting reflex). Type of data set: in vivo. Conditions: Table 5-1, groups of seven, test compound 10 mg/kg p.o. one hour before pentobarbital-Na 25 mg/kg s.c., controls 52.12 ± 5.20 (r5) and 35.56 ± 5.21 (r11). On the procedure:
The test was conducted to examine influence of Compound (I) of the present invention on pentobarbital sodium-induced sleeping time, according to the method of Iyakuhin no Kaihatsu, Vol. 9, Iyakuhin no Tansaku I, “antihypnotic”, p. 220-226, Hirokawa Shoten.
For the test, ddY male mice (19-21 g body weight; Japan SLC, Inc.) were used. All test compounds were used by suspending in distilled water (Otsuka Pharmaceutical Factory, Inc.) containing 0.5 volume/weight % methylcellulose (0.5% MC: Wako Pure Chemical Industries, Ltd.). A volume of 0.1 mL was administered per 10 g body weight of mice.
Groups of seven mice were used. To the control groups were orally administrated 0.5% MC, whereas a suspension of the test compound was orally administered to the test compound administered groups. One hour after the administration, pentobarbital sodium (pentobarbital-Na: Tokyo Chemical Industry Co., Ltd., 25 mg/kg) was administered subcutaneously. Mouse placed in a recumbent position, the mouse immediately returns to a proper upright position (this is known as righting reflex). However, the administration of pentobarbital sodium eliminated the righting reflex in the control groups. The time period in which the administration of […] eliminated the righting reflex was regarded as a sleeping time. By a measurement of time disappearing righting reflex immediately after the administration, the sleeping time was determined.

For the molecule `O=C(Nc1nc(-c2ccco2)c(C(=O)C2CCOCC2)s1)c1ccc(Cl)cc1` [Compound 376, 4-Chloro-N-[4-(2-furyl)-5-(tetrahydropyran-4-ylcarbonyl)-thiazol-2-yl]benzamide], the melting point was in the range of 204 to 206 °C. For the same molecule, the “Sleeping time (min) Mean value ± standard deviation” value in data set [1] turned out to be 0.00 ± 0.00 min.
Molecule `O=C(Nc1nc(-c2ccco2)c(C(=O)C2CCOCC2)s1)c1ccc(Cl)nc1` [Compound 407, 2-Chloro-N-[4-(2-furyl)-5-(tetrahydropyran-4-ylcarbonyl)-thiazol-2-yl]pyridine-5-carboxamide] displayed a melting point of 233 to 235 °C. For the same molecule, the “Sleeping time (min) Mean value ± standard deviation” value in data set [1] came out at 0.00 ± 0.00 min.
On the same counts, the results for `O=C(Nc1nc(-c2ccco2)c(C(=O)C2CCOCC2)s1)c1ccco1` [Compound 416, N-[4-(2-Furyl)-5-(tetrahydropyran-4-ylcarbonyl)thiazol-2-yl]furan-2-carboxamide] are 196 to 198 °C and 0.06 ± 0.06 min.
Taken in the same sequence, the figures for `N#Cc1ccc(C(=O)Nc2nc(-c3ccco3)c(C(=O)C3CCOCC3)s2)o1` [Compound 420, 5-Cyano-N-[4-(2-furyl)-5-(tetrahydropyran-4-ylcarbonyl)-thiazol-2-yl]furan-2-carboxamide] were 222 to 223 °C and 0.00 ± 0.00 min.

One may read the melting point as the temperature, or range, at which the solid turns liquid.
